Patent publication US20090111847A1, “PREPARATION METHOD AND USE OF COMPOUNDS HAVING HIGH INSECTICIDAL ACTIVITIES” (priority 2006, published 2009)

Assays:
Nilaparvata lugens = assay: Insecticidal activity against Nilaparvata lugens by spraying (mortality after 24 hours); type: in vivo; conditions: for Mortality (%) (500 ppm) Nilaparvata lugens: spraying 2 ml, counted after 24 hours; for mortality at 500 ppm: Nilaparvata lugens, 24 h, read-out: Mortality (%) (500 ppm) Nilaparvata lugens
Method: Plant hopper, which belongs to Homoptera and has a piercing-sucking mouthpart, is a common insect for agricultural plant. Nilaparvata lugens was tested by the way of spraying.
Test method: the compound to be tested was exactly formulated into a solution having a certain concentration and clean water was used as a blank control. Each process was repeated for 3 tumblers (3 times). 2 ml of solution was sprayed uniformly to each tumbler by a mini manual sprayer. 10 Nilaparvata lugens were introduced to every sink 6 hours before spraying. Three series of experiments were conducted. The number of killed Nilaparvata lugens was counted after 24 hours to calculate the mortality.

Aphis craccivora = assay: Insecticidal activity against Aphis craccivora by immersing (mortality after 24 hours); type: in vivo; conditions: for Mortality (%) (500 ppm) Aphis craccivora: in vivo; for mortality at 500 ppm: Aphis craccivora, 24 h, read-out: Mortality (%) (500 ppm) Aphis craccivora
Method: Aphis, which belongs to Homoptera and has a piercing-sucking mouthpart, is a common insect for agricultural plant. Aphis craccivora was tested by the way of immersing.
Test method: exactly weighed various samples were independently added to N,N-dimethylformamide to form a 10 g/L stock solution. The mixture was diluted with 0.2 mL/L aqueous Triton X-100 solution to a concentration of 500 ug/mL. After stably sucking on bean sprout, the adult aphis without wings together with bean sprout was dipped into the dilution of 500 ug/mL, 100 ug/mL, 50 ug/mL, 25 ug/mL, 12.5 ug/mL, 6.25 ug/mL (LD50 was calculated), taken out after 5 seconds, and the excess dilution was sucked out with bibulous paper and the adult aphis without wings was incubated in clean vessel at a constant temperature of 23° C. Each concentration was repeated for 3 times and the control group contained 0.2 mL/L aqueous Triton X-100 solution. The number of killed aphis was counted after 24 hours to calculate the mortality.

SMILES | Mortality (%) (500 ppm) Nilaparvata lugens (Nilaparvata lugens) | Mortality (%) (500 ppm) Aphis craccivora (Aphis craccivora) | mortality at 500 ppm (Nilaparvata lugens) [%] | mortality at 500 ppm (Aphis craccivora) [%]
CC1(C)CC(O)N2CCN(Cc3ccc(Cl)nc3)C2=C1[N+](=O)[O-] (centres unmarked) [Compound 31] | 100 | 96 | – | –
CCC1CC([N+](=O)[O-])=C2N(Cc3ccc(Cl)nc3)CCN2C1O (centres unmarked) [Compound 26] | 100 | 100 | – | –
C#CCOC1CC(C)C([N+](=O)[O-])=C2N(Cc3ccc(Cl)nc3)CCN21 (centres unmarked) [Compound 10] | 67 | 43 | – | –
COC1CC([N+](=O)[O-])=C2N(Cc3ccc(Cl)nc3)CCN2C1O (centres unmarked) [Compound 46, 1-((6-chloropyridin-3-yl)methyl)-6-methoxy-8-nitro-1,2,3,5,6,7-hexahydroimidazo[1,2-a]pyridin-5-ol] | – | – | 73 | 100
CC1CC(OCC(F)(F)F)N2CCN(Cc3ccc(Cl)nc3)C2=C1[N+](=O)[O-] (centres unmarked) [Compound 4] | 100 | 100 | – | –
CC(C)OC1CC(C)C([N+](=O)[O-])=C2N(Cc3ccc(Cl)nc3)CCN21 (centres unmarked) [Compound 6] | 100 | 100 | – | –
COC1CC([N+](=O)[O-])=C2N(Cc3cnc(Cl)s3)CCN2C1O (centres unmarked) [Compound 48] | 90 | 85 | – | –
CCCC1C(C)C([N+](=O)[O-])=C2N(Cc3ccc(Cl)nc3)CCN2C1O (centres unmarked) [Compound 34] | 90 | 95 | – | –
CCC1CC(O)N2CCN(Cc3ccc(Cl)nc3)C2=C1[N+](=O)[O-] (centres unmarked) [Compound 22] | 98 | 93 | – | –
CCCOC1CC(C)C([N+](=O)[O-])=C2N(Cc3cnc(Cl)s3)CCN21 (centres unmarked) [Compound 14] | 100 | 100 | – | –
COC1C(C)C([N+](=O)[O-])=C2N(Cc3ccc(Cl)nc3)CCN2C1O (centres unmarked) [Compound 49] | 100 | 100 | – | –
CCC1CC([N+](=O)[O-])=C2N(Cc3ccc(Cl)nc3)CCN2C1OC (centres unmarked) [Compound 27] | 80 | 92 | – | –
O=[N+]([O-])C1=C2N(Cc3ccc(Cl)nc3)CCN2C(O)CC1c1ccccc1 (centres unmarked) [Compound 38, 1-((6-chloropyridin-3-yl)methyl)-8-nitro-7-phenyl-1,2,3,5,6,7-hexahydroimidazo[1,2-a]pyridin-5-ol] | – | – | 0 | 24
CCCC1CC([N+](=O)[O-])=C2N(Cc3ccc(Cl)nc3)CCN2C1O (centres unmarked) [Compound 28] | 96 | 100 | – | –
CC1C(O)N2CCN(Cc3ccc(Cl)nc3)C2=C([N+](=O)[O-])C1(C)C (centres unmarked) [Compound 36] | 97 | 94 | – | –
CCCCOC1CC(C)C([N+](=O)[O-])=C2N(Cc3ccc(Cl)nc3)CCN21 (centres unmarked) [Compound 7, 5-butoxy-1-((6-chloropyridin-3-yl)methyl)-7-methyl-8-nitro-1,2,3,5,6,7-hexahydroimidazo[1,2-a]pyridine] | – | – | 100 | 80
